Measured values: patent US5880145A, “Class of benzoporphyrin derivative photoactive compounds” (The University of British Columbia, priority 1997, dated 1999)
Where two headings read alike, the source gives them in different places.

What was measured:
[1] = tested on: Murine leukemia cells (L1210); experiment: Photosensitization of cells in vitro (broad spectrum light 9 j/cm^2; MTT cell viability); type: cell-based; conditions: for IC50: Mus musculus, L1210, light or radiation study, 20 h, 1 hour incubation, light 9 j/cm^2, viability 20 hours later, read-out: LD50 (dose causing 50% cell kill)
Method: Murine leukemia cells (L1210) were incubated in suitable buffer with and without serum in various amounts of the drug B3 for 1 hour. After removal of the drug, the cells were exposed to broad spectrum light at 9 j/cm^2. Cell viability was determined 20 hours later by the MTT colorimetric assay. Results are presented in FIGS. 2A and 2B as % cell kill for cells exposed to light only.

L1210 cells [2] = experiment: Uptake of B3 by cells in vitro; type: cell-based, Murine; conditions: 3 μg/ml, 10% serum
Method: Uptake of B3 by cells in vitro: L1210 cells (5×10^6 /vial) were incubated in the presence of 10% serum with B3 at 3 μg/ml for times up to 100 minutes. At various times during incubation, duplicate vials were pulled out and the cells, following washing, were lysed and the amount of B3 in the extract determined by fluorescence in the presence of 1% Triton X-100.

[3] = tested on: M1 (rhabdomyosarcoma) tumor-bearing mice; experiment: Selectivity in vivo: biodistribution (tumor:tissue ratios)
Method: Mice (normal, healthy and M1-tumor-bearing) were injected intravenously at 4 mg/kg with B3 formulated in aqueous solution containing DMSO. At various times post B3 administration, the animals were sacrificed and B3 content in various tissues was determined in tissue extracts by fluorescence as described above. Biodistribution data of B3 (tumor:tissue ratios) obtained in M1 (rhabdomyosarcoma) tumor-bearing mice were also evaluated at various times. Within the first hour post intravenous administration of 4 mg/kg B3, tumor:tissue ratios for the muscle and skin were 1.5-2.0 and 3.1-3.9, respectively. Lymph nodes gave ratios of 0.7. […] Since this preferential accumulation was observed shortly after B3 administration, this photosensitizer can be activated with light shortly after its injection, which is convenient in clinical use.

L1210 cells [4] = experiment: Release/retention of B3 by cells in vitro; type: cell-based, Murine; conditions: after 1 hour incubation at 3 μg/ml; drug-free medium with 10% serum
Method: Release/retention of B3 by cells in vitro: L1210 cells were incubated for 1 hour with B3 at 3 μg/ml in the presence of 10% serum, then washed and placed in drug-free medium containing 10% serum. At various times duplicate aliquots were evaluated for cell content of B3 as described above.

[5] = Tissue distribution and clearance in vivo; conditions: mice, intravenous 4 mg/kg
Method: Mice (normal, healthy and M1-tumor-bearing) were injected intravenously at 4 mg/kg with B3 formulated in aqueous solution containing DMSO. At various times post B3 administration, the animals were sacrificed and B3 content in various tissues was determined in tissue extracts by fluorescence as described above.

[6] = within first hour post intravenous 4 mg/kg

**Q.** Which results are given for C=Cc1c(C)c2cc3nc(cc4[nH]c(cc5nc(cc1[nH]2)[C@@]1(C)C5=CC=C(C(=O)O)[C@H]1C(=O)OC)c(C)c4CCC(=O)OC)C(CCC(=O)OC)=C3C (relative stereo) [Example B3]?
**A.** IC50 ([1]; in the absence of 10% serum): 0.007 µg/mL; IC50 ([1]; in the presence of 10% serum): 0.035 µg/mL; photosensitization of cells (in words) ([1]; with and without serum): very potent photosensitizer of cells and maintains this property in the presence of serum; time to reach maximum concentrations in cells (uptake) (L1210 cells [2]): ≤ 20 min; cellular pharmacokinetics in vitro (in words) (L1210 cells [2]; uptake and release, L1210 cells): very rapid pharmacokinetics in vitro; accumulation in tumor and other rapidly proliferating tissues versus normal tissues (in words) ([3]; shortly after intravenous 4 mg/kg): preferential accumulation of B3 in tumor and other rapidly proliferating tissues (lymph nodes) in contrast to normal, nonproliferating tissues; tumor:tissue ratio, lymph nodes [3, 6]: 0.7; tumor:tissue ratio, muscle [3, 6]: 1.5-2.0; tumor:tissue ratio, skin [3, 6]: 3.1-3.9; time after which release from cells is rapid and almost complete (L1210 cells [4]): ~30 min; pharmacokinetics in vivo (in words) [5]: very rapid pharmacokinetics in vivo; time after which drug was cleared from tissues tested ([5]; aqueous solution containing DMSO): about 5 minutes
